Data set [1] addresses T1, Bromodomain-containing protein 4 (Homo sapiens, UniProt O60885). As to the kind of experiment: Binding affinity to BRD4 in human H1299 cells stably expressing E2 and HPV16-LCR luciferase reporter incubated for 24 hrs by Bright-Glo luciferase reporter gene assay based BRD4 engagement assay. It is filed as cell-based.
Data set [2] can be described thus: Permeability of the compound by PAMPA method. The following applies: read-out: permeability. In kind it is ADME. Background: In PAMPA a lipid-coated filter parts donor from acceptor wells.
Data set [3] in a line: Oral bioavailability in mouse at 10 mg/kg. The following applies: in vivo. It is filed as ADME, organism-based.
The target of data set [4] is T1, Bromodomain-containing protein 4. As to the kind of experiment: Binding affinity to His-tagged BRD4 bromodomain 1 to 2 (K57 to K550 amino acids) (unknown origin) using Alexa647-labeled BET-inhibitor as fluorescent probe by bromodomain TR-FRET binding assay. In kind it is single protein.
Data set [5] in a line: Intrinsic unbound clearance in human liver microsomes. In kind it is ADME, microsome. On the technique in general: Liver microsomes are a subcellular fraction often used to study metabolism.
The subject of a further data set is Mus musculus. As to the kind of experiment: Unbound clearance in mouse at 10 mg/kg, po. It is filed as ADME, organism-based. The following applies: in vivo.
The nature of data set [6]: Intrinsic unbound clearance in mouse liver microsomes. In kind it is ADME, microsome.
The next data set deals with MX1. As to the kind of experiment: Antiproliferative activity against human MX1 cells incubated for 72 hrs by cell-titer Glo assay. In kind it is functional, cell-based. As to conditions: MX1, 72 h.
Data set [7] in a line: AUC in mouse at 10 mg/kg, po. In kind it is ADME, organism-based. The following applies: in vivo.

For `Cn1cc2c3c(c[nH]c3c1=O)CN(CC1CC1)c1ccc(CS(C)(=O)=O)cc1-2`, in [1], the IC50 – broadly, the point on the concentration scale where inhibition reaches its midpoint – is 4.6 nM. The Papp in [2] was 4.3 ×10⁻⁶ cm/s. In addition, the bioavailability – broadly, dose-corrected exposure relative to a reference, in per cent – in [3] stood at 8.2%. Also, the Ki (usually the equilibrium dissociation constant of an inhibitor or competing ligand from its target) in data set [4] came out at 8.4 nM. Also, the CL free came to 183 mL/min/kg in [5], 450 mL/min/kg with Mus musculus and 300 mL/min/kg in data set [6]. For the same molecule, the EC50 (in general, the concentration that produces a half-maximal response) in the data set on MX1 was found to be 2 nM. In addition, the AUC (usually concentration integrated over time) in data set [7] was found to be 0.16 µM·h.

As to `CCS(=O)(=O)Nc1ccc2c(c1)-c1c[nH]c(=O)c3c1c(cn3C)CN2c1ccccn1`, the concentration for half-maximal inhibition (IC50) in data set [1] was determined as 18 nM. Also, affinity in data set [4] was put at a Ki of 2.7 nM. This molecule had an EC50 with MX1 of 4.9 nM.

Take `CCS(=O)(=O)Nc1cnc2c(c1)-c1cn(C)c(=O)c3[nH]cc(c13)CN2c1ccc(F)cc1F`: the IC50 in data set [1] amounted to 4.1 nM. For the same molecule, the Ki in [4] worked out at 4.1 nM. For the same molecule, the EC50 in the data set on MX1 was determined as 7 nM.

As for `Cn1cc(-c2ccccc2NCC2CC2)c2cc[nH]c(=O)c21`, the 50% inhibitory concentration (IC50) in [1] came out at 5000 nM. In data set [4], this molecule yielded a Ki of 1500 nM. In addition, the EC50 with MX1 was 3300 nM.

Consider `Cn1cc2c3c(c[nH]c(=O)c31)-c1cc(CS(C)(=O)=O)ccc1N(c1ccc(F)cc1F)C2`, for which, in data set [1], the IC50 turned out to be 6.5 nM. The same molecule gave a Ki in data set [4] of 2.7 nM. Further, the EC50 in the data set with MX1 is 4 nM.

In turn, `COC(=O)N1Cc2cn(C)c3c(=O)[nH]cc(c23)-c2cc(CS(C)(=O)=O)ccc21` returned a half-maximal inhibitory concentration (IC50) in data set [1] of 48 nM. This molecule had an inhibitory constant (Ki) in data set [4] of 17 nM. This molecule yielded an EC50 in the data set on MX1 of 78 nM.

`Cn1cc(-c2ccccc2NCC2CC2)c2cc[nH]c2c1=O`: the response with MX1 was half-maximal at 1400 nM (EC50).

In data set [1], `CCC(=O)N1Cc2c[nH]c3c(=O)n(C)cc(c23)-c2cc(CS(C)(=O)=O)ccc21` returned an IC50 of 9 nM. Besides, the affinity in [4] corresponds to a Ki of 7.3 nM. Besides, in the data set with MX1, a half-maximal effect (EC50) was put at 4.7 nM.

The molecule `Cn1cc2c3c(c[nH]c(=O)c31)CN(CC1CC1)c1ccccc1-2` registered an IC50 in data set [1] of 95 nM. The molecule also had a Ki in data set [4] of 43 nM. The molecule also displayed an EC50 in the data set on MX1 of 57 nM.

In data set [1], `CCS(=O)(=O)Nc1ccc(Oc2ccc(F)cc2F)c(-c2cn(C)c(=O)c3[nH]ccc23)c1` [MIVEBRESIB] displayed an IC50 of 20 nM.

Molecule `CCS(=O)(=O)Nc1ccc2c(c1)-c1c[nH]c(=O)c3c1c(cn3C)CN2c1ccc(F)cc1` had a concentration for half-maximal inhibition (IC50) in data set [1] of 4.3 nM. This molecule also gave a Ki in data set [4] of 4.8 nM. In the data set on MX1, this molecule had an EC50 of 5.6 nM.

Take `Cn1cc2c3c(c[nH]c3c1=O)CN(C1CCC(F)(F)CC1)c1ccc(CS(C)(=O)=O)cc1-2`: the IC50 in [1] turned out to be 3.7 nM. Further, the Papp in data set [2] turned out to be 7.3 ×10⁻⁶ cm/s. Besides, the bioavailability in data set [3] worked out at 48%. Besides, the Ki in [4] amounted to 4.7 nM. The values for the CL free (in data set [5]; in the data set on Mus musculus; in [6]) were 67 mL/min/kg, 4830 mL/min/kg and 267 mL/min/kg, respectively. The same molecule returned an EC50 in the data set with MX1 of 1.4 nM. Moreover, in data set [7], the AUC was 0.13 µM·h.

`Cn1cc2c3c(c[nH]c3c1=O)CN(c1ccc(F)cc1)c1ccc(CS(C)(=O)=O)cc1-2` came in with a half-inhibitory concentration (IC50) in data set [1] of 1.5 nM. Besides, in data set [2], the Papp worked out at 6.6 ×10⁻⁶ cm/s. In addition, the bioavailability in data set [3] was 23%. For the same molecule, the affinity in data set [4], expressed as Ki, was 0.87 nM. Further, the CL free in [5] was less than 41.7 mL/min/kg; with Mus musculus, 5170 mL/min/kg; in [6] it was 1400 mL/min/kg. A half-maximal response in the data set on MX1 (EC50) required 0.72 nM. The same molecule returned an AUC in data set [7] of 0.67 µM·h.

`Cn1cc(-c2cc(CS(C)(=O)=O)ccc2NCC2CC2)c2cc[nH]c(=O)c21`: in data set [1], the IC50 came to 200 nM. The molecule further displayed a Ki in [4] of 220 nM. Besides, in the data set with MX1, the EC50 was 140 nM.

`Cn1cc2c3c(c[nH]c3c1=O)CN(CC1CC1)c1ccc(S(C)(=O)=O)cc1-2` returned an IC50 in data set [1] of 28 nM. The same molecule showed a Ki in data set [4] of 26 nM. In the data set on MX1, this molecule showed an EC50 of 15 nM.

Take `Cn1cc(-c2cc(CS(C)(=O)=O)ccc2NCC2CC2)c2cc[nH]c2c1=O`: it took 43 nM to reach a half-maximal effect with MX1 (EC50).

For `Cn1cc2c3c(c[nH]c(=O)c31)CN(CC1CC1)c1ccc(S(C)(=O)=O)cc1-2`, the IC50 in [1] is 190 nM. In data set [4], this molecule came in with a Ki of 180 nM. Also, the EC50 in the data set with MX1 was determined as 140 nM.

The molecule `Cn1cc2c3c(c[nH]c3c1=O)CN(C(=O)C1CC1)c1ccc(CS(C)(=O)=O)cc1-2` showed an IC50 in data set [1] of 21 nM. This molecule also registered a Ki in data set [4] of 7.1 nM. In addition, in the data set on MX1, a half-maximal response (EC50) required 7.8 nM.

For the molecule `Cn1cc2c3c(c[nH]c(=O)c31)-c1cc(CS(C)(=O)=O)ccc1N(C(=O)C1CC1)C2`, the IC50 in data set [1] came to 31 nM. Affinity in data set [4] was put at a Ki of 7.7 nM. The molecule also yielded an EC50 in the data set with MX1 of 16 nM.

Consider `Cn1cc(-c2cc(S(C)(=O)=O)ccc2NCC2CC2)c2cc[nH]c(=O)c21`, for which, in data set [1], the IC50 was found to be 150 nM. Also, the Ki in [4] was found to be 80 nM. Besides, the EC50 with MX1 amounted to 140 nM.

`Cn1cc2c3c(c[nH]c3c1=O)CN(CC1CC1)c1ccccc1-2` displayed an IC50 in data set [1] of 23 nM. Also, the Ki in data set [4] worked out at 16 nM. The midpoint of the response in the data set with MX1, the EC50, lay at 7.3 nM.

Consider `CCS(=O)(=O)Nc1cnc2c(c1)-c1c[nH]c(=O)c3c1c(cn3C)CN2c1ccc(F)cc1F`, for which, in [1], the IC50 is 32 nM. The Ki in [4] worked out at 4.4 nM. The molecule also yielded an EC50 with MX1 of 18 nM.

In data set [1], `Cn1cc2c3c(c[nH]c(=O)c31)-c1cc(CS(C)(=O)=O)ccc1N(c1ccccn1)C2` displayed an IC50 of 2.3 nM. The Papp in data set [2] was 5.9 ×10⁻⁶ cm/s. The inhibition constant (Ki) in data set [4] came out at 2.9 nM. Besides, the CL free in [5] is 65 mL/min/kg; in [6], 140 mL/min/kg. Further, in the data set with MX1, the EC50 amounted to 5.5 nM. Moreover, in data set [7], the area under the curve (AUC) stood at 1.2 µM·h.

In data set [1], `Cn1cc2c3c(c[nH]c(=O)c31)CN(CC1CC1)c1ccc(CS(C)(=O)=O)cc1-2` gave an IC50 of 23 nM. The Papp in data set [2] was found to be 2.5 ×10⁻⁶ cm/s. The molecule further showed a bioavailability in [3] of 23%. For the same molecule, affinity in data set [4] was put at a Ki of 12 nM. Moreover, the CL free in [5] was less than 45 mL/min/kg; with Mus musculus, 733 mL/min/kg; in [6], less than 130 mL/min/kg. The same molecule had an EC50 in the data set on MX1 of 19 nM. In data set [7], the AUC came to 0.64 µM·h.

For `Cn1cc(-c2cc(S(C)(=O)=O)ccc2NCC2CC2)c2cc[nH]c2c1=O`, in the data set on MX1, the EC50 came to 17 nM.

These data come from ChEMBL document CHEMBL4190379 (Bioorg Med Chem Lett, 2018).
